Each molecule was assayed against T1, human APJ receptor (Homo sapiens, UniProt P35414) (assay: Intracellular cAMP Accumulation Assay (APJ hcAMP, HTRF)). Conditions: not given.
T1 construct: expressed in transfected cells; host or cells: HEK293
T1 sequence (P35414 1-380): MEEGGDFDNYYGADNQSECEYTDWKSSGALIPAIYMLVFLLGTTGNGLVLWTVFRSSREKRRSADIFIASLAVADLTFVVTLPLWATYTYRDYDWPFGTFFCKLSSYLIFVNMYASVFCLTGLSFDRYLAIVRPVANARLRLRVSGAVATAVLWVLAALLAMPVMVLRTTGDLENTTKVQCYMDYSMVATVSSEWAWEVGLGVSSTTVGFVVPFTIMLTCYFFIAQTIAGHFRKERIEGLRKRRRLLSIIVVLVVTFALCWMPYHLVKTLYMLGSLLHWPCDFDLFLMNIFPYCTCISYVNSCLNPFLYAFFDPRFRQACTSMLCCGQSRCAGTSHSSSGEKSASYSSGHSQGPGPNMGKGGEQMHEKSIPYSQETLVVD
Assay type: cell-based
Procedure: Intracellular cAMP Accumulation Assay
HEK293 cells stably expressing human APJ receptor were used to assess the activity of compounds. Cultured cells were detached and resuspended in the cAMP
Homogeneous Time-Resolved Fluorescence (HTRF) assay buffer (Cisbio cat; #62AM4PEJ). The assay was performed in 384-well assay plates (Perkin-Elmer; cat #6008289) according to assay protocol provided by the manufacturer. Serial dilutions of a compound together with assay buffer containing […] IBMX and 2 μM forskolin were added to each well containing 5,000 cells and incubated for 30 minutes at room temperature. Subsequently, cAMP D2 reagent was added in the lysis buffer followed by the EuK antibody (Cisbio; cat #62AM4PEJ) and incubated for 60 min. The fluorescence emission ratio was measured using fluorometer. The intracellular cAMP concentrations (compound-stimulated inhibition of forskolin-mediated cAMP production) were calculated by extrapolation from a standard curve using known cAMP concentrations. The EC50 values were obtained by fitting the data to a sigmoidal concentration-response curve with variable slope.
The EC50 value of each compound is presented at the end of the example description.
The biological activity of the exemplified compounds of this invention determined by the assay described above is shown at the end of each example.
CCCCc1nc(=O)c(C(=O)N2CCC(c3ccc(Cl)cc3)C2)c(O)n1-c1c(OC)cccc1OC (single isomer, unassigned) [Example 46, 2-butyl-5-[3-(4-chlorophenyl)pyrrolidine-1-carbonyl]-1-(2,6-dimethoxyphenyl)-6-hydroxy-1,4-dihydropyrimidin-4-one] was tested, and the EC50 was 0.01 to 10 nM.
In the case of [2H]C([2H])([2H])Oc1cccc(OC([2H])([2H])[2H])c1-n1c(COCC)nc(=O)c(C(=O)N2CC[C@H](c3ccccc3)C2)c1O [Example 106, 1-[2,6-bis(^2H3)methoxyphenyl]-2-(ethoxymethyl)-6-hydroxy-5-[(3R)-3-phenylpyrrolidine-1-carbonyl]-1,4-dihydropyrimidin-4-one], the EC50 is reported as 0.01 to 10 nM.
In the case of C=CCCc1nc(=O)c(C(=O)N2CC[C@@H](c3ccccc3)C2)c(O)n1-c1c(OC)cccc1OC [Example 16, (S)-2-(but-3-en-1-yl)-3-(2,6-dimethoxyphenyl)-6-hydroxy-5-(3-phenylpyrrolidine-1-carbonyl)pyrimidin-4(3H)-one], the EC50 is reported as 0.01 to 10 nM.
For CCCCc1nc(=O)c(C(=O)N2CCC(c3ccc(Cl)cn3)C2)c(O)n1-c1c(OC)cccc1OC (single isomer, unassigned) [Example 41, 2-butyl-5-(3-(5-chloropyridin-2-yl)pyrrolidine-1-carbonyl)-1-(2,6-dimethoxyphenyl)-6-hydroxypyrimidin-4(1H)-one], the EC50 was 0.01 to 10 nM.
For CCOCc1nc(=O)c(C(=O)N2CC[C@H](c3ccccc3)C2)c(O)n1-c1c(OC)cccc1OC [Example 23, (R)-1-(2,6-dimethoxyphenyl)-2-(ethoxymethyl)-6-hydroxy-5-(3-phenylpyrrolidine-1-carbonyl)pyrimidin-4(1H)-one], the EC50 was 0.01 to 10 nM.

Same assay, conditions: HEK293 cells stably expressing human APJ receptor; inhibition of forskolin-mediated cAMP production; read-out: Human APJ cAMP EC50 potency range
C=CCCc1nc(O)c(C(=O)N2CC[C@H](c3ccccc3)C2)c(=O)n1-c1c(C)cccc1OC (single isomer, unassigned) [Example 8″] was tested, and the EC50 was 0.01 to 10 nM.

Same assay, conditions: human APJ, cAMP accumulation; potency range class; read-out: hAPJ cAMP EC50 Potency range
Molecule CCc1cccc(CC)c1-n1c(-c2csc(C)n2)nc(=O)c(C(=O)N2CCC(c3ncc(Cl)cc3F)C2)c1O (single isomer, unassigned) [Example 296, 5-[3-(5-chloro-3-fluoropyridin-2-yl)pyrrolidine-1-carbonyl]-1-(2,6-diethylphenyl)-6-hydroxy-2-(2-methyl-1,3-thiazol-4-yl)-1,4-dihydropyrimidin-4-one] has an EC50 of 0.01 to 10 nM.
Molecule COc1cccc(OC)c1-n1c(CC2CC2)nc(=O)c(C(=O)N2CCC(c3ccccc3F)C2)c1O (single isomer, unassigned) [Example 226, 2-(cyclopropylmethyl)-1-(2,6-dimethoxyphenyl)-5-[3-(2-fluorophenyl)pyrrolidine-1-carbonyl]-6-hydroxy-1,4-dihydropyrimidin-4-one] has an EC50 of 0.01 to 10 nM.
Molecule CCc1cccc(CC)c1-n1c(-c2ccn(CC)n2)nc(=O)c(C(=O)N2CCC(c3ncc(Cl)cc3F)C2)c1O (single isomer, unassigned) [Example 311, 5-[3-(5-chloro-3-fluoropyridin-2-yl)pyrrolidine-1-carbonyl]-1-(2,6-diethylphenyl)-2-(1-ethyl-1H-pyrazol-3-yl)-6-hydroxy-1,4-dihydropyrimidin-4-one] has an EC50 of 0.01 to 10 nM.
In the case of COc1cccc(OC)c1-n1c(-c2cccc(C)n2)nc(=O)c(C(=O)N2CCC(c3ncc(F)cc3F)C2)c1O (single isomer, unassigned) [Example 235, 5-[3-(3,5-difluoropyridin-2-yl)pyrrolidine-1-carbonyl]-1-(2,6-dimethoxyphenyl)-6-hydroxy-2-(6-methylpyridin-2-yl)-1,4-dihydropyrimidin-4-one], the EC50 is reported as 0.01 to 10 nM.
CCCCc1nc(=O)c(C(=O)N2CCN(Cc3cccc(Cl)c3Cl)CC2)c(O)n1-c1c(OC)cccc1OC [Example 355, 2-butyl-5-(4-(2,3-dichlorobenzyl)piperazine-1-carbonyl)-1-(2,6-dimethoxyphenyl)-6-hydroxypyrimidin-4(1H)-one0.011] was tested, and the EC50 was 0.01 to 10 nM.
In the case of CCn1ccc(-c2nc(=O)c(C(=O)N3CC[C@@H](c4ccccc4)C3)c(O)n2-c2cccc(C(C)C)c2)n1 [Example 288, 2-(1-ethyl-1H-pyrazol-3-yl)-6-hydroxy-5-[(3S)-3-phenylpyrrolidine-1-carbonyl]-1-[3-(propan-2-yl)phenyl]-1,4-dihydropyrimidin-4-one], the EC50 is reported as 0.01 to 10 nM.
COc1ccnc(-c2nc(=O)c(C(=O)N3CCC(c4ccc(F)cc4F)C3)c(O)n2-c2c(OC)cccc2OC)c1 (single isomer, unassigned) [Example 278, 5-[3-(2,4-difluorophenyl)pyrrolidine-1-carbonyl]-1-(2,6-dimethoxyphenyl)-6-hydroxy-2-(4-methoxypyridin-2-yl)-1,4-dihydropyrimidin-4-one] gave an EC50 of 0.01 to 10 nM.
With CCOCc1nc(=O)c(C(=O)N2CCC(c3ccccc3C#N)C2)c(O)n1-c1c(OC)cccc1OC (single isomer, unassigned) [Example 363, 2-(1-(1-(2,6-dimethoxyphenyl)-2-(ethoxymethyl)-6-hydroxy-4-oxo-1,4-dihydropyrimidine-5-carbonyl)pyrrolidin-3-yl)benzonitrile] the EC50 was 0.01 to 10 nM.

Same assay, conditions: human APJ, intracellular cAMP accumulation; read-out: hAPJ cAMP EC50 Potency range
In the case of COc1cccc(OC)c1-n1c(CCC2CC2)nc(=O)c(C(=O)N2CCN(Cc3cccc(F)c3F)CC2)c1O [Example 173, 2-(2-cyclopropylethyl)-5-{4-[(2,3-difluorophenyl)methyl]piperazine-1-carbonyl}-1-(2,6-dimethoxyphenyl)-6-hydroxy-1,4-dihydropyrimidin-4-one], the EC50 is reported as 0.01 to 10 nM.
COc1cccc(OC)c1-n1c(CCC2CC2)nc(=O)c(C(=O)N2CCC(c3ncc(Cl)cc3F)C2)c1O (single isomer, unassigned) [Example 180, 5-[3-(5-chloro-3-fluoropyridin-2-yl)pyrrolidine-1-carbonyl]-2-(2-cyclopropylethyl)-1-(2,6-dimethoxyphenyl)-6-hydroxy-1,4-dihydropyrimidin-4-one] gave an EC50 of 0.01 to 10 nM.
In the case of CCCCc1nc(=O)c(C(=O)N2CC[C@H](c3ccccc3)C2)c(O)n1C(C)c1ccccc1Cl (stereo partly drawn) [Example 134, 2-butyl-3-[1-(2-chlorophenyl)ethyl]-6-hydroxy-5-[(3R)-3-phenylpyrrolidine-1-carbonyl]-3,4-dihydropyrimidin-4-one], the EC50 is reported as 10 to 100 nM.
In the case of COc1cccc(OC)c1-n1c(COC(C)C)nc(=O)c(C(=O)N2CCC(c3ccccc3F)C2)c1O (single isomer, unassigned) [Example 93, 1-(2,6-dimethoxyphenyl)-5-[3-(2-fluorophenyl)pyrrolidine-1-carbonyl]-6-hydroxy-2-[(propan-2-yloxy)methyl]-1,4-dihydropyrimidin-4-one], the EC50 is reported as 0.01 to 10 nM.
For COc1cccc(OC)c1-n1c(COC(C)C)nc(=O)c(C(=O)N2CCC(c3cccc(F)c3)C2)c1O (single isomer, unassigned) [Example 97, 1-(2,6-dimethoxyphenyl)-5-[3-(3-fluorophenyl)pyrrolidine-1-carbonyl]-6-hydroxy-2-[(propan-2-yloxy)methyl]-1,4-dihydropyrimidin-4-one], the EC50 was 0.01 to 10 nM.
In the case of COc1cccc(OC)c1-n1c(COC(C)(C)C)nc(=O)c(C(=O)N2CCC(c3ccccc3Cl)C2)c1O (single isomer, unassigned) [Example 42, 2-[(tert-butoxy)methyl]-5-[3-(2-chlorophenyl)pyrrolidine-1-carbonyl]-1-(2,6-dimethoxyphenyl)-6-hydroxy-1,4-dihydropyrimidin-4-one], the EC50 is reported as 0.01 to 10 nM.
For CCCCc1nc(=O)c(C(=O)N2CC[C@@H](c3ccccc3)C2)c(O)n1[C@@H](COC)c1ccccc1 [Example 127, 2-butyl-6-hydroxy-3-[(1R)-2-methoxy-1-phenylethyl]-5-[(3S)-3-phenylpyrrolidine-1-carbonyl]-3,4-dihydropyrimidin-4-one], the EC50 was 10 to 100 nM.
In the case of COc1cccc(OC)c1-n1c(CC2CC2)nc(=O)c(C(=O)N2CC[C@@H](c3ccccc3)C2)c1O [Example 31, (S)-2-(cyclopropylmethyl)-3-(2,6-dimethoxyphenyl)-6-hydroxy-5-(3-phenylpyrrolidine-1-carbonyl)pyrimidin-4(3H)-one], the EC50 is reported as 0.01 to 10 nM.
CCCCc1nc(=O)c(C(=O)N2CCC(c3cccc(F)c3)C2)c(O)n1-c1c(OC)cccc1OC (single isomer, unassigned) [Example 80, 2-butyl-1-(2,6-dimethoxyphenyl)-5-[3-(3-fluorophenyl)pyrrolidine-1-carbonyl]-6-hydroxy-1,4-dihydropyrimidin-4-one] gave an EC50 of 0.01 to 10 nM.
Molecule CC[C@@H](c1cc(F)cc(F)c1)n1c(-c2ccn(CC)n2)nc(=O)c(C(=O)N2CCC(c3ccc(Cl)cn3)C2)c1O (single isomer, unassigned) [Example 213] has an EC50 of 0.01 to 10 nM.
With CC[C@@H](c1cc(F)cc(F)c1)n1c(-c2ccn(C)n2)nc(=O)c(C(=O)N2CCC(c3ncccc3F)C2)c1O (single isomer, unassigned) [Example 189] the EC50 was 0.01 to 10 nM.

From patent US10590113B2, “6-hydroxy-4-oxo-1,4-dihydropyrimidine-5-carboxamides as APJ agonists” (priority 2016, dated 2020)
